# Laboratory results published in patent US20260000642A1 (Tay Therapeutics Limited, priority 2022, published 2026).
# What was measured:
# [1] = Beagle dog PK study 2 (IV, HPβCD based formulation); type: in vivo
# Method: The purpose of this study was to examine the pharmacokinetics of Example 101 in beagle dogs. […] An oral PK study was also undertaken in Lewis rats—see Experimental Method C.
# Body weight was recoded prior to dosing, and detailed clinical observations were made prior to dosing and throughout the study, as needed.
# 78.646 mL of HPβCD (20% solution w/v) was then added with vortex and sonication.
# Blood samples (˜0.3 mL) were collected according to a schedule (shown below) by venipuncture of peripheral veins except for the dosing vein, and EDTA-K2 was used as anticoagulant. Within 30 minutes of collection, the samples were centrifuged at approximately 2000× g for 10 minutes at 4° C. to obtain blood plasma. The plasma samples were immediately divided into two aliquots (˜75 μL each), transferred to a cryogenic vial, and stored in a freezer at −75±15° C. prior to analysis.
# Blood samples were collected at 0.083, 0.25, 0.5, 1, 2, 4, 8, and 24 h following the initial dosing (0 h).
# The experiments were conducted on a Shimadzu DGU-20A5R and AB API 5500+LC/MS/MS instrument with an Agilent Poroshell EC-C18 4 μm (50×2.1 mm) column. A gradient of 95% water (0.1% formic acid)/95% acetonitrile (0.1% formic acid) was used as the mobile phase. The sample injection volume was 1 μL, and the flow rate was 0.6 mL/min. The gathered data were used for pharmacokinetic calculations using T½, C0, AUClast, AUCinf, MRTinf, CI, Vss, and Number of Points for Regression as parameters.
# CXCL10 = test: Human PBMC assay, CXCL10 by ELISA (IFN-γ stimulation); type: cell-based
# Method: The impact of Examples 23, 80, and 101 on IL-17A, IL-22, and CXCL10 levels was analyzed in cryopreserved human peripheral blood mononuclear cells (PBMC) by ELISA.
# For IL-17A and IL-22 assays, Examples 23, 80, and 101 were serially diluted from 10 mM in DMSO and further diluted in assay media to 100× the required final concentration, of which, 2 μL was added per well to a round-bottom 96-well tissue culture plate where the final DMSO concentration per well was 0.1%. CD2, CD3, and CD28 antibody-coated beads from the T-cell activation/expansion kit (Miltenyi Biotec) were added to the PBMC at a bead-to-cell ratio of 1:2. The mixture of PBMCs and beads were seeded into the wells of the round-bottom 96-well plate at a concentration of 2×10^5 cells/well in a total volume of 200 μL. The cells were cultured for 72 hours at 37° C. and 5% CO2 and then supernatants were collected and IL-17A and IL-22 levels were measured by ELISA. For the CXCL10 assay, Examples 23, 80, and 101 were serially diluted from 10 mM in DMSO and further diluted in assay media to 100× the required final concentration, of which 2 μL was added per well to a 96-well tissue culture plate. The final compound concentration ranged from 30,000 nM to 0.005 nM and the final DMSO concentration per well was 0.3%. PBMCs were seeded at approximately […] in the wells of the 96-well tissue culture plate in a total volume of 190 μL. The plate was incubated for 1 hour at 37° C. and 5% CO2. The cells were then stimulated with IFN-γ (15 ng/mL final concentration) in a volume of 10 μL. The cells were then cultured for 24 hours at 37° C. and 5% CO2. The supernatant was collected and CXCL10 levels were measured by ELISA.
# UUO model: serum urea = type: in vivo, rat; details: UUO rats; 30 mg/kg; compared with sham and UUO + vehicle
# Description: Serum for blood biochemistry analysis was collected into centrifuge tubes without coagulant four hours after final dosing. Blood plasma samples from group 3 was collected into tubes with K2EDTA four hours after final dosing. At the conclusion of the study (end of the 14-day period), animals were euthanized. Kidney tissue was collected four hours after final dosing. Ligated side kidney was divided into three copies 1/3 fix into 10% formalin for H&E analysis, 1/3 into RNA for PCR analysis of tissue biomarkers Col1a1, TGF-b1, MCP-1, IL-1b, IL-6, IL-17, TNF-a, and Timp1, and 1/3 for hydroxyproline assay analyzed by ELISA. RNA was extracted from tissue using the RNeasy mini kit (Qiagen). RNA concentration was measured using a NanoDrop One Spectrophotometer (ThermoFisher) and converted to cDNA using a High-Capacity RNA-to-cDNA kit (Invitrogen). RT-PCR was performed to measure levels of mRNA of different targets using TaqMan® Gene Expression Master Mix and TaqMan® probe/primer sets on a QuantStudio 6 Real-Time PCR System (ThermoFisher). Fold change in target gene expression was determined using the ΔΔCt method.
# [2] = Plasma stability assay, human plasma; type: in vitro ADME; details: 37° C., Method 1 (5 μM)
smiles,measurement,setting,value
"CNC(=O)c1[nH]c(C(=O)NC2CCC2)cc1O[C@@H](C)c1ccccc1 [Example 101, N^5-cyclobutyl-N^2-methyl-3-(1-phenylethoxy)-1H-pyrrole-2,5-dicarboxamide]","AUClast/D, Mean","[1]; PK study 2, IV 1 mg/kg",977 (ng · h/mL)/(mg/kg)
same,"AUC—% Extrap_obs, Mean","[1]; PK study 2, IV 1 mg/kg",0.689%
same,"C0, Mean","[1]; PK study 2, IV 1 mg/kg",1875 ng/mL
same,"Cl_obs, Mean","[1]; PK study 2, IV 1 mg/kg",18.3 mL/min/kg
same,"Vssz_obs, Mean","[1]; PK study 2, IV 1 mg/kg",0.864 L/kg
same,"Average plasma concentration, Mean","[1]; PK study 2, IV 1 mg/kg, 24 h",BLOQ
same,Vssz_obs,"[1]; PK study 2, IV 1 mg/kg, Test Animal 1",0.838 L/kg
same,Vssz_obs,"[1]; PK study 2, IV 1 mg/kg, Test Animal 2",0.886 L/kg
same,Vssz_obs,"[1]; PK study 2, IV 1 mg/kg, Test Animal 3",0.868 L/kg
same,clinical observations after intravenous administration,"[1]; beagle dogs, PK study 2, IV, 0.5 mg/mL in HPβCD (20% solution w/v)/DMSO (99/1)",soft feces
same,selectivity to induction of CXCL10 relative to IL-17A and IL-22,CXCL10,showed selectivity
same,IC50 for CXCL-10 relative to GSK620,"CXCL10; IFN-γ, 24 hours, ELISA",substantially lower 1050
same,serum urea levels,UUO model: serum urea,No significant differences
same,Plasma Stability (% remaining at 120 minutes) Human,[2],93%
